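These data come from cells grown in 96-well plates and exposed to compound for 48 hours at five concentrations. Abbreviation: GI50, concentration required for 50% inhibition of growth.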 Activity calls are given as the source filed them. Rule as the data show it: active = GI50 up to about 1.1 µM and inactive = higher.
What was measured:
Test in all cases: growth of human tumour cells (NCI), 48 h
NCI/ADR-RES = test system: NCI/ADR-RES
K562 = test system: K562
HT-29 = test system: HT-29
A549 = test system: A549
MDA-N = test system: MDA-N
MDA-MB-435 = test system: MDA-MB-435
KM12 = test system: KM12
HOP-62 = test system: HOP-62
DMS-273 = test system: DMS-273
PC-3 = test system: PC-3
COLO 205 = test system: COLO 205
HOP-92 = test system: HOP-92
SK-MEL-28 = test system: SK-MEL-28
RPMI-8226 = test system: RPMI-8226
SF-268 = test system: SF-268
HCT-15 = test system: HCT-15
MCF7 = test system: MCF7
UO-31 = test system: UO-31
SK-MEL-5 = test system: SK-MEL-5
NCI-H226 = test system: NCI-H226
KM-20L2 = test system: KM-20L2
SNB-78 = test system: SNB-78
RXF 393 = test system: RXF 393
IGROV-1 = test system: IGROV-1
HL-60 = test system: HL-60
NCI-H23 = test system: NCI-H23
ACHN = test system: ACHN
U-251 = test system: U-251
M19-MEL = test system: M19-MEL
BT-549 = test system: BT-549
SW-620 = test system: SW-620
MOLT-4 = test system: MOLT-4
T47D = test system: T47D
SNB-75 = test system: SNB-75
SNB-19 = test system: SNB-19
SN12C = test system: SN12C
CAKI-1 = test system: CAKI-1
MDA-MB-231 = test system: MDA-MB-231
CCRF-CEM = test system: CCRF-CEM
UACC-257 = test system: UACC-257
SK-OV-3 = test system: SK-OV-3
786-0 = test system: 786-0
LXFL 529 = test system: LXFL 529
SF-295 = test system: SF-295
SR = test system: SR
M14 = test system: M14
DU-145 = test system: DU-145
EKVX = test system: EKVX
OVCAR-8 = test system: OVCAR-8
OVCAR-4 = test system: OVCAR-4
A498 = test system: A498
OVCAR-3 = test system: OVCAR-3
LOX IMVI = test system: LOX IMVI
OVCAR-5 = test system: OVCAR-5
UACC-62 = test system: UACC-62
NCI-H460 = test system: NCI-H460
NCI-H522 = test system: NCI-H522
DLD-1 = test system: DLD-1
HCC 2998 = test system: HCC 2998
SK-MEL-2 = test system: SK-MEL-2
HCT-116 = test system: HCT-116
TK-10 = test system: TK-10
SF-539 = test system: SF-539
Malme-3M = test system: Malme-3M
Hs-578T = test system: Hs-578T
HOP-18 = test system: HOP-18

Nc1nc(SCc2ccccc2[N+](=O)[O-])c2[nH]cnc2n1
GI50 (NCI/ADR-RES): 26.7 µM (inactive)
GI50 (K562): > 55.2 µM (inactive)
GI50 (HT-29): 32.8 µM (inactive)
GI50 (A549): > 76.6 µM (inactive)
GI50 (MDA-N): 27.9 µM (inactive)
GI50 (MDA-MB-435): 36 µM (inactive)
GI50 (KM12): > 57.7 µM (inactive)
GI50 (HOP-62): > 69.5 µM (inactive)
GI50 (DMS-273): > 100 µM (inactive)
GI50 (PC-3): 31.5 µM (inactive)
GI50 (COLO 205): > 45 µM (inactive)
GI50 (HOP-92): 2.23 µM (inactive)
GI50 (SK-MEL-28): > 61.1 µM (inactive)
GI50 (RPMI-8226): > 47.2 µM (inactive)
GI50 (SF-268): > 35.7 µM (inactive)
GI50 (HCT-15): > 56.5 µM
GI50 (MCF7): 51.5 µM (inactive)
GI50 (UO-31): > 66.5 µM (inactive)
GI50 (SK-MEL-5): 18.9 µM (inactive)
GI50 (NCI-H226): > 50.9 µM (inactive)
GI50 (KM-20L2): > 100 µM (inactive)
GI50 (SNB-78): > 100 µM (inactive)
GI50 (RXF 393): > 62.8 µM (inactive)
GI50 (IGROV-1): > 38 µM (inactive)
GI50 (HL-60): > 53.6 µM (inactive)
GI50 (NCI-H23): > 58.1 µM (inactive)
GI50 (ACHN): > 57.8 µM (inactive)
GI50 (U-251): > 61.9 µM (inactive)
GI50 (M19-MEL): > 100 µM (inactive)
GI50 (BT-549): 26.2 µM (inactive)
GI50 (SW-620): > 73.6 µM (inactive)
GI50 (MOLT-4): > 100 µM (inactive)
GI50 (T47D): 23.3 µM (inactive)
GI50 (SNB-75): > 42.5 µM (inactive)
GI50 (SNB-19): > 83.2 µM (inactive)
GI50 (SN12C): > 57.1 µM (inactive)
GI50 (CAKI-1): 38.7 µM (inactive)
GI50 (MDA-MB-231): 39.4 µM (inactive)
GI50 (CCRF-CEM): > 44.8 µM (inactive)
GI50 (UACC-257): > 40.1 µM (inactive)
GI50 (SK-OV-3): > 71 µM (inactive)
GI50 (786-0): > 65.2 µM (inactive)
GI50 (LXFL 529): > 100 µM (inactive)
GI50 (SF-295): > 67.6 µM (inactive)
GI50 (SR): > 51.6 µM (inactive)
GI50 (M14): > 53.3 µM (inactive)
GI50 (DU-145): 44.7 µM (inactive)
GI50 (EKVX): > 53.5 µM (inactive)
GI50 (OVCAR-8): > 52.8 µM (inactive)
GI50 (OVCAR-4): 62.2 µM (inactive)
GI50 (A498): 18.6 µM (inactive)
GI50 (OVCAR-3): > 70.8 µM (inactive)
GI50 (LOX IMVI): > 53.3 µM (inactive)
GI50 (OVCAR-5): 42.3 µM (inactive)
GI50 (UACC-62): 37.3 µM (inactive)
GI50 (NCI-H460): > 40.2 µM (inactive)
GI50 (NCI-H522): > 31.8 µM (inactive)
GI50 (DLD-1): > 100 µM (inactive)
GI50 (HCC 2998): > 41.5 µM (inactive)
GI50 (SK-MEL-2): 26.7 µM (inactive)
GI50 (HCT-116): > 60.1 µM (inactive)
GI50 (TK-10): > 34.8 µM (inactive)
GI50 (SF-539): > 100 µM (inactive)
GI50 (Malme-3M): > 30.6 µM (inactive)
GI50 (Hs-578T): 1.93 µM (inactive)

COc1c(CC(C)O)c2c3c(CC(C)O)c(OC)c(=O)c4c(O)cc5c(c6c(cc(O)c(c1=O)c62)OCO5)c43 (stereo not drawn) [CERCOSPORIN]
GI50 (K562): 2 µM (inactive)
GI50 (HT-29): 0.364 µM (active)
GI50 (A549): 1.65 µM (inactive)
GI50 (KM12): 1.62 µM (inactive)
GI50 (HOP-62): 1.99 µM (inactive)
GI50 (DMS-273): 0.906 µM (active)
GI50 (COLO 205): 0.158 µM (active)
GI50 (HOP-92): 2.3 µM (inactive)
GI50 (SK-MEL-28): 1.86 µM (inactive)
GI50 (RPMI-8226): 2.1 µM (inactive)
GI50 (SF-268): 1.81 µM (inactive)
GI50 (HCT-15): 1.56 µM
GI50 (UO-31): 2.14 µM (inactive)
GI50 (SK-MEL-5): 1.52 µM (inactive)
GI50 (NCI-H226): 2.29 µM (inactive)
GI50 (KM-20L2): 0.301 µM (active)
GI50 (SNB-78): 2.15 µM (inactive)
GI50 (RXF 393): 1.27 µM (inactive)
GI50 (IGROV-1): 1.69 µM (inactive)
GI50 (HL-60): 0.968 µM (active)
GI50 (NCI-H23): 1.4 µM (inactive)
GI50 (ACHN): 1.63 µM (inactive)
GI50 (U-251): 1.72 µM (inactive)
GI50 (M19-MEL): 0.664 µM (active)
GI50 (SW-620): 2.1 µM (inactive)
GI50 (MOLT-4): 1.75 µM (inactive)
GI50 (SNB-75): 2.38 µM (inactive)
GI50 (SNB-19): 2.49 µM (inactive)
GI50 (SN12C): 1.57 µM (inactive)
GI50 (CAKI-1): 6.01 µM (inactive)
GI50 (CCRF-CEM): 2.72 µM (inactive)
GI50 (UACC-257): 1.34 µM (inactive)
GI50 (SK-OV-3): 4.14 µM (inactive)
GI50 (786-0): 2.66 µM (inactive)
GI50 (LXFL 529): 1.56 µM (inactive)
GI50 (SF-295): 1.91 µM (inactive)
GI50 (SR): 1.37 µM (inactive)
GI50 (M14): 1.29 µM (inactive)
GI50 (HOP-18): 2.58 µM (inactive)
GI50 (OVCAR-8): 1.74 µM (inactive)
GI50 (OVCAR-4): 1.38 µM (inactive)
GI50 (OVCAR-3): 1.87 µM (inactive)
GI50 (LOX IMVI): 0.711 µM (active)
GI50 (OVCAR-5): 2.88 µM (inactive)
GI50 (UACC-62): 1.78 µM (inactive)
GI50 (NCI-H460): 0.45 µM (active)
GI50 (NCI-H522): 1.82 µM (inactive)
GI50 (DLD-1): 1.96 µM (inactive)
GI50 (SK-MEL-2): 1.55 µM (inactive)
GI50 (HCT-116): 1.39 µM (inactive)
GI50 (TK-10): 2.62 µM (inactive)
GI50 (SF-539): 2.13 µM (inactive)
GI50 (Malme-3M): 0.374 µM (active)

Reference: ChEMBL document CHEMBL1201862, “PubChem BioAssay data set” (2004)
